# Experimental data reported in US20220168472A1, “ENZYME-DEGRADABLE HYDROGEL FOR DELIVERY OF A PAYLOAD” (priority 2019, published 2022).
# Legend:
# [1] = test system: human corneal epithelial cells (HCEpCs); test: PDMS stencil wound assay, HCEpCs, bolus HA or MMP-9; type: cell-based; conditions: for increase of wound healing rate: 0.1-0.6 mg/mL
# Protocol: HCEpCs were cultured in a T-25 flask with keratinocyte serum-free media supplemented with keratinocyte growth serum and penicillin/streptomycin (KM; Sciencell) that was changed every other day. The SV-40 immortalized HCEpCs were generously donated from a collaborator (for example, see: F. Li, M. Griffith, Z. Li, S. Tanodekaew, H. Sheardown, M. Hakim, and D. J. Carlsson, “Recruitment of multiple cell lines by collagen-synthetic copolymer matrices in corneal regeneration,” Biomaterials, vol. 26, no. 16, pp. 3093-3104, 2005 Jun. 1, doi: https://doi.org/10.1016/j.biomaterials.2004.07.063; and/or M. Griffith, R. Osborne, R. Munger, X. Xiong, C. J. Doillon, N. L. C. Laycock, M. Hakim, Y. Song, and M. A. Watsky, “Functional Human Corneal Equivalents Constructed from Cell Lines,” Science, vol. 286, no. 5447, pp. 2169-2172, 1999, doi: 10.1126/science.286.5447.2169, the entire contents of which are incorporated herein by reference). Once confluence was reached, the HCEpCs were passaged in 2 ml of TrypLE Express (GIBCO, Life Technologies, Thermo Scientific) and subcultured for the wound assay as described previously. The HCEpCs were cultured with KM until a monolayer had formed. Wound assays were conducted as described above for RCEpCs. The well was then rinsed with PBS and replaced with KM. Images were taken daily to observe the closure of the wound and graphs were generated using GraphPad Prism 6.
# (§1) To validate the wound assays 200 kDa hyaluronic acid (151-300 kDa HA; Lifecore Biomedicals) were added to the media of both RCEpC and HCEpC PDMS wound assays. Once the wound assays were validated, the efficacy of medium sized 60 kDa HA (66-99 kDa; Lifecore Biomedicals) was investigated. Various concentrations of 60 kDa HA were dissolved in KM and added as a bolus dosage to HCEpC wound assays. The media was changed daily until full closure of the wound. Images were taken daily to observe the closure of the wound and graphs were generated using GraphPad Prism 6.
# (§2) To verify if the wound assay could provide a consistent initial wound area to two different corneal epithelial cell types, 1 mm diameter PDMS wound assays were performed with both rabbit corneal epithelial cells (RCEpCs; FIG. 20A) and human corneal epithelial cells (HCEpCs; FIG. 20B). Primary RCEpCs were initially used as they would behave similar to future in vivo rabbit studies. Healing of the wound varied between the two cell-types, with the primary RCEpC wound healing within 2 days and the HCEpC wound healing in 7 days (FIG. 20C). […] The improvement was narrowed to 21% (95.9%±6.9% wound closure) at 18.5 hours, compared to the control (74.9%±9.0%). […] HA was confirmed to be a potential drug due to its consistency among cell types, rapid ability to heal wounds, low minimum effective concentration, and cost efficiency.
# Most literature assesses the effects of native high molecular weight HA and oligomer HA on epithelial wound healing. To obtain an ideal MMP-9 controlled release profile, the influence of mid-size 60 kDa HA on corneal wound healing was investigated. PDMS-stencil wound assays were conducted using 0.05, 0.1, 0.3, 0.6, or 1.0 mg/ml of 60 kDa HA treatments daily (FIG. 21A). A 250 ng/ml MMP-9 sample was included to observe the effects of the enzyme on wound healing, similar to an in vivo environment.
# [2] = test system: rabbit corneal epithelial cells (RCEpCs); test: PDMS stencil wound assay, RCEpCs, bolus HA; type: cell-based
# Protocol: Primary rabbit corneal epithelial cells (Cell Biologics Inc.) were cultured using a T-25 flask in epithelial cell media supplemented with insulin-transferrin-selenium, epidermal growth factor, L-glutamine, antibiotic-antimycotic solution and fetal bovine serum (Cell Biologics Inc.). Once confluence was reached, the RCEpCs were briefly rinsed with PBS and passaged with trypsin-EDTA (GIBCO, Thermo Scientific). The cells were then sub-cultured on a 24-well plate surface pre-coated with a gelatin-based coating (Cell Biologics Inc.) containing a thin, punched out poly-dimethyl siloxane (PDMS) stencil adhered to the surface. The media was changed daily until a cell monolayer was formed. The PDMS disk stencil was then carefully removed from the surface. The well was then rinsed with PBS and replaced with epithelial cell media. Images were taken daily to observe the closure of the wound and graphs were generated using GraphPad Prism 6.
# as §1, §2
Substance,increase of wound healing rate ([1]; 60 hours),increase of wound healing rate ([1]; first 24 hours),"wound healing compared to the control ([1]; 0.3, 0.6, and 0.05 mg/ml daily)","wound healing compared to the control ([1]; the other HA samples (of 0.05, 0.1, 0.3, 0.6, 1.0 mg/ml) daily)","improvement in wound healing relative to the control ([2]; 0.45 mg/ml HA, 4 hours)","wound closure ([2]; 0.45 mg/ml HA, 4 hours)","improvement in wound healing relative to the control ([2]; 0.45 mg/ml HA, 18.5 hours)","wound closure ([2]; 0.45 mg/ml HA, 18.5 hours)","improvement in wound healing relative to the control ([2]; 0.75 mg/ml HA, 12 hours)","wound closure ([2]; 0.75 mg/ml HA, 12 hours)","improvement in wound healing relative to the control ([1]; 0.45 mg/ml HA, 33 hours)","wound closure ([1]; 0.45 mg/ml HA, 33 hours)","improvement in wound healing relative to the control ([1]; 0.45 mg/ml HA, 59.5 hours)","wound closure ([1]; 0.45 mg/ml HA, 59.5 hours)","improvement in wound healing relative to the control ([1]; 0.75 mg/ml HA, 18.5 hours)","wound closure ([1]; 0.75 mg/ml HA, 18.5 hours)","improvement in wound healing relative to the control ([1]; 0.75 mg/ml HA, 59.5 hours)","wound closure ([1]; 0.75 mg/ml HA, 59.5 hours)"
hyaluronic acid [60 kDa HA],24%,40%,healed rapidly,slowed wound healing compared to the control,–,–,–,–,–,–,–,–,–,–,–,–,–,–
hyaluronic acid [HA],–,–,–,–,149%,36.4%±14.6%,21%,95.9%±6.9%,35%,64.9%±13.6%,31%,42.8%±7.2%,19%,81.8%±7.6%,58%,27.5%±7.1%,26%,86.5%±4.2%
